From the OPERA property sets (Mansouri et al. 2018)

Structure (SMILES) | logP
Nc1cncc(N)n1 | -0.45
COc1cncc(N(C)C)n1 | 1.99
Cc1cncc(C#N)n1 | 0.44
CCc1nc(C#N)c(C#N)nc1Cl | 1.79
COc1ccnc(C#N)n1 | 0.86
COc1cncc(C#N)n1 | 0.95
COC(=O)c1ccc(Br)o1 | 1.84
CCOc1cncc(OCC)n1 | 2.55
CC(=O)Nc1cncc(C)n1 | 0.38
COC(=O)c1cncc(N(C)C)n1 | 0.9
Cc1cncc(N)n1 | 0.35
CCOc1cncc(C(N)=O)n1 | 0.61
COc1cncc(N)n1 | 0.73
CCOC(=O)c1cncc(OC)n1 | 1.2
CN(C)c1cnc(Cl)cn1 | 1.7
CN(C)c1cncc(C#N)n1 | 1.12
Cc1cnc(C#N)cn1 | 0.26
CCOc1cnc(Cl)cn1 | 1.99
COc1cnc(Cl)cn1 | 1.52

Structure (SMILES) | logP
COC(=O)c1cncc(OC)n1 | 0.69
COc1cncc(NC(C)=O)n1 | 0.82
COc1cncc(C(N)=O)n1 | 0.13
Cc1cncc(C)n1 | 0.54
CN(C)c1cncc(C(N)=O)n1 | 0.38
Cc1cncc(C(N)=O)n1 | -0.13
CCOc1cncc(OC)n1 | 1.98
CCc1ncc(C)nc1CC | 1.95
Cc1cnc(C(N)=O)cn1 | -0.25
Clc1cnc(Cl)cn1 | 1.58
COC(=O)c1cncc(C)n1 | 0.1
Cc1nc(C#N)c(C#N)nc1Cl | 1.29
CCOC(=O)c1cncc(N(C)C)n1 | 1.24
Cc1cncc(N(C)C)n1 | 1.57
Cc1nc(C)c(C)nc1C | 1.28
CCOC(=O)c1cncc(C)n1 | 0.51
CC(=O)Nc1cnc(Cl)cn1 | 0.56
COc1cncc(OC)n1 | 1.58
CCCCc1nc(C#N)c(C#N)nc1Cl | 2.89

More lines, now with the values ahead:

logP | Structure (SMILES)
2.24 | Cc1nccnc1OC(C)C
0.65 | CCOC(=O)c1nccnc1C(=O)OCC
0.17 | COC(=O)c1cnc(C)cn1
1.08 | Cc1cnc(Cl)cn1
1.65 | COc1cnc(N(C)C)cn1
1.24 | COc1nccnc1C
1.14 | COc1cnc(OC)cn1
1.07 | CCc1nccnc1C
1.29 | COc1cncc(C)n1
0.61 | CCOC(=O)c1cnc(C)cn1
-0.02 | COC(=O)c1nccnc1C(=O)OC
0.38 | N#Cc1nccnc1C#N
2.1 | CCCCc1nccnc1C
1.81 | CSc1nccnc1C
1.51 | CCc1nccnc1CC
1.5 | Cc1cnc(C)c(Cl)n1
0.95 | Cc1cnc(C)c(C)n1
0.63 | COc1cnc(N)cn1
0.54 | Cc1nccnc1C
1.57 | CCCc1nccnc1C
